The source of these data is patent publication US20250263459A1, “STABILIZED PACAP PEPTIDE” (SENJU PHARMACEUTICAL CO., LTD., priority 2019, published 2025).

Non-standard residues stand in square brackets, D forms with d. Residues, ends and D or L forms follow the SMILES beside them. ξ: configuration not given here. *: point of attachment. Ala(1H-tetrazol-5-yl) = N[C@@H](Cc1nnn[nH]1)C(=O)O; ξAla(tetrazol-5-yl) = NC(Cc1nnn[nH]1)C(=O)O; Isobutyryl = CC(C)C(=O)*; Nle = CCCC[C@H](N)C(=O)O; Butyryl = CCCC(=O)*

Broadly, the EC50 is the concentration at which the effect is half-maximal.

The nature of data set [1]: Stability test 1: survival rate of peptide in phosphate buffer (pH 7.0) after storage, HPLC. The conditions noted are these: 100 μM peptide. The class given is physicochemical. In outline: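 Peptide solutions at 100 μM in phosphate buffer were stored at 40° C. for 1 week to 2 months depending on peptide. Remaining peptide was measured by reverse-phase HPLC peak area against an unstored standard, with survival rate also corrected for water loss through the container from weighing before and after storage.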

The next data set concerns the target T1, VPAC1 receptor (Homo sapiens, UniProt P32241).
T1 construct: host or cells: CHO-K1
T1 sequence (P32241 31-457): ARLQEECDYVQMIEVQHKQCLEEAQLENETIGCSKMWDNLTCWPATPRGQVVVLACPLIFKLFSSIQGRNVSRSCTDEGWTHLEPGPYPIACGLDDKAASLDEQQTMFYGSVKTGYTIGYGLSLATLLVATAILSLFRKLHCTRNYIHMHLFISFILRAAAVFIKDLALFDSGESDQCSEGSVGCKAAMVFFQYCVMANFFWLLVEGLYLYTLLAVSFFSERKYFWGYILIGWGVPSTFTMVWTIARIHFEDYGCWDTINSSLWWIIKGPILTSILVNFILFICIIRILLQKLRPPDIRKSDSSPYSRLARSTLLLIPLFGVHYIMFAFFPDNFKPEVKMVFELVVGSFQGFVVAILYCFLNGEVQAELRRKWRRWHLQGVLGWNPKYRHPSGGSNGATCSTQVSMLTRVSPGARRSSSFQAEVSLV
The experiment in a line: cAMP assay in CHO-K1 cells, VPAC1 receptor high-expressing cell line. The class given is cell-based. The note with it: 30 minutes incubation. Here is the method: The cells were cultured for 18 to 24 hours at 37° C. in a 5% CO2 incubator, adhering the cells to the plate. […] A 5-fold dilution series was then prepared with the same Cell assay buffer and used in an assay. The cAMP assay was carried out using a Hit Hunter cAMP Assay for Biologics kit (product of DiscoveRx, Cat. No. 90-0075LM25), according to the included kit instructions. […] Next, the culture medium was removed from the CHO-K1 cell culture plate, washing was performed with PBS, and the peptide-cAMP antibody liquid mixtures were added to the cells and incubated for 30 minutes under a 5% CO2 atmosphere at 37° C. A working detection solution was then added and the culture plate was shielded from light with aluminum foil and incubated at 25° C. for 1 hour. After incubation, Solution A was added and the culture plate was shielded from light with aluminum foil and then incubated at 25° C. for 3 hours. […] The obtained value for the Relative Luminescence Unit (RLU) was analyzed with GraphPad Prism Ver 6.05 (product of Graph Pad) and the EC50 value was calculated for each peptide.

The conditions of data set [2]: 100 μM peptide, Tris buffer pH 7.0, 60° C.
Method: The solution was filtered with a Chromatdisk (product of Merck Millipore, Millex-GV, 0.22 μm). The filtrate was diluted to 100 μM with Tris buffer (pH 7.0) and dispensed into a tube (Protein LoBind Tube by Eppendorf Co.). The prepared peptide solutions were incubated for 1 week or 2 weeks in a 60° C. thermostatic bath to obtain stored samples. A simultaneously prepared sample among the peptide solutions that was not stored was used as a standard sample (initial sample). The standard sample and the stored samples were stored at −30° C. until sample analysis.
• Column: XSelect CSH C18 by Waters Co., 5 μm, 4.6×250 mm • Guard column: XSelect CSH C18 by Waters Co., 5 μm, 4.6×20 mm Guard Cartridge • Detection wavelength: 220 nm • Mobile phase A: 0.1% formic acid aqueous solution • Mobile phase B: 0.1% acetonitrile formate solution • Measuring time: 20 minutes • Measuring sample injection rate: 50 μL • Flow rate: 1.0 mL/min • Column temperature: 40° C. • Sample cooler: 25° C. • Mobile phase delivery: The mixing ratio of mobile phase A and mobile phase B was varied as shown in Table 14 for linear concentration gradient control.
Data set [3] in a line: Stability test 1, sample preparation 5: survival rate of peptide in Tris buffer (pH 7.0) after storage, HPLC. The conditions noted are these: 100 μM peptide; for survival rate after correction for water, 40° C. 4 week / survival rate after correction for water, 40° C. 8 week: Tris buffer pH 7.0, 40° C.; for survival rate after correction for water, 40° C. 4 week: 4 weeks (Table 13); for survival rate after correction for water, 40° C. 8 week: 8 weeks (Table 13); for survival rate after correction for water, 60° C. 1 week / survival rate after correction for water, 60° C. 2 week: Tris buffer pH 7.0, 60° C.; for survival rate after correction for water, 60° C. 1 week: 1 week (Table 13); for survival rate after correction for water, 60° C. 2 week: 2 weeks (Table 13). The class given is physicochemical. Here is the method:
The peak area value for the peptide in the chromatogram was calculated, and the survival rate (survival rate before correction for water) was calculated using formula (2). The survival rate after correction for water was also calculated from the survival rate before correction for water using formula (3) to take into account the permeability of the container.
The prepared peptide solutions were incubated for 4 weeks or 8 weeks in a 40° C. thermostatic bath, and for one week or 2 weeks in a thermostatic bath at 60° C., to obtain stored samples.
The following gradient time was used only for peptide 30.

Data set [4] can be described thus: Stability test 1: survival rate of peptide in phosphate buffer (pH 7.0) after storage, HPLC. The data set is classed as physicochemical. The conditions noted are these: 100 μM peptide, 0.1% phosphate buffer pH 7.0, head prints 80° C., 8 weeks (Table 4).
Setting [5] is: phosphate buffer pH 7.0, 40° C., 4 weeks (Table 8).
Where [6] appears, read: 0.1% phosphate buffer pH 7.0, 40° C., 4 weeks (Table 4).

For the molecule `CCCC[C@H](NC(=O)[C@H](CCC(N)=O)NC(=O)[C@H](CCCCN)NC(=O)[C@H](CCCNC(=N)N)NC(=O)[C@H](Cc1ccc(O)cc1)NC(=O)[C@H](CCCNC(=N)N)NC(=O)[C@H](CO)NC(=O)[C@H](Cc1ccc(O)cc1)NC(=O)[C@H](CO)NC(=O)[C@H](Cc1nnn[nH]1)NC(=O)[C@@H](NC(=O)[C@H](Cc1ccccc1)NC(=O)[C@@H](NC(=O)CNC(=O)[C@H](Cc1nnn[nH]1)NC(=O)[C@H](CO)NC(=O)[C@H](Cc1c[nH]cn1)NC(=O)CCC)[C@@H](C)CC)[C@@H](C)O)C(=O)N[C@@H](C)C(=O)N[C@H](C(=O)N[C@@H](CCCCN)C(=O)N[C@@H](CCCCN)C(=O)N[C@@H](Cc1ccc(O)cc1)C(=O)N[C@@H](CC(C)C)C(=O)N[C@@H](C)C(=O)N[C@@H](C)C(=O)N[C@H](C(=O)N[C@@H](CC(C)C)C(N)=O)C(C)C)C(C)C` [Peptide 18] (Butyryl-HS[Ala(1H-tetrazol-5-yl)]GIFT[Ala(1H-tetrazol-5-yl)]SYSRYRKQ[Nle]AVKKYLAAVL-NH2), the “survival rate after correction for water, 40° C. 4 week” value (from here on “survival rate … 40° C. 4 week”) in data set [1] (setting [5]) is 65.1%. The same molecule came in with an EC50 on VPAC1 receptor of 0.069 nM.

`CCCC[C@H](NC(=O)[C@H](CCC(N)=O)NC(=O)[C@H](CCCCN)NC(=O)[C@H](CCCNC(=N)N)NC(=O)[C@H](Cc1ccc(O)cc1)NC(=O)[C@H](CCCNC(=N)N)NC(=O)[C@H](CO)NC(=O)[C@H](Cc1ccc(O)cc1)NC(=O)[C@H](CO)NC(=O)[C@H](Cc1nnn[nH]1)NC(=O)[C@@H](NC(=O)[C@H](Cc1ccccc1)NC(=O)[C@@H](NC(=O)CNC(=O)[C@H](Cc1nnn[nH]1)NC(=O)[C@H](CO)NC(=O)[C@H](Cc1c[nH]cn1)NC(=O)C(C)C)[C@@H](C)CC)[C@@H](C)O)C(=O)N[C@@H](C)C(=O)N[C@H](C(=O)N[C@@H](CCCCN)C(=O)N[C@@H](CCCCN)C(=O)N[C@@H](Cc1ccc(O)cc1)C(=O)N[C@@H](CC(C)C)C(=O)N[C@@H](C)C(=O)N[C@@H](C)C(=O)N[C@H](C(=O)N[C@@H](CC(C)C)C(N)=O)C(C)C)C(C)C` [Peptide 19, HSTzGI FTTzSY SRYRK QNIAVK KYLAA VL] (Isobutyryl-HS[Ala(1H-tetrazol-5-yl)]GIFT[Ala(1H-tetrazol-5-yl)]SYSRYRKQ[Nle]AVKKYLAAVL-NH2): in data set [1] (setting [5]), the “survival rate … 40° C. 4 week” value turned out to be 68.7%. At VPAC1 receptor, this molecule returned an EC50 of 0.069 nM.

As to `CC[C@H](C)[C@H](NC(=O)CNC(=O)[C@H](CC(=O)O)NC(=O)[C@H](CO)NC(=O)[C@@H](N)Cc1c[nH]cn1)C(=O)N[C@@H](Cc1ccccc1)C(=O)N[C@H](C(=O)N[C@@H](CC(=O)O)C(=O)N[C@@H](CO)C(=O)N[C@@H](Cc1ccc(O)cc1)C(=O)N[C@@H](CO)C(=O)N[C@@H](CCCNC(=N)N)C(=O)N[C@@H](Cc1ccc(O)cc1)C(=O)N[C@@H](CCCNC(=N)N)C(=O)N[C@@H](CCCCN)C(=O)N[C@@H](CCC(N)=O)C(=O)N[C@@H](CCSC)C(=O)N[C@@H](C)C(=O)N[C@H](C(=O)N[C@@H](CCCCN)C(=O)N[C@@H](CCCCN)C(=O)N[C@@H](Cc1ccc(O)cc1)C(=O)N[C@@H](CC(C)C)C(=O)N[C@@H](C)C(=O)N[C@@H](C)C(=O)N[C@H](C(=O)N[C@@H](CC(C)C)C(N)=O)C(C)C)C(C)C)[C@@H](C)O` [Reference Example 1, reference compound], the “survival rate … 40° C. 4 week” value is reported as 37.4% in data set [1] (setting [6]); 23.9% in data set [1] (setting [5]); 33.0% in data set [1] (phosphate buffer pH 7.0, 40° C., 4 weeks (Table 10)); 37.9% in data set [3]. Also, the “survival rate after correction for water, 40° C. 1 week” value in data set [1] (phosphate buffer pH 7.0, 40° C., 1 week (Table 10)) turned out to be 74.9%. Further, the “survival rate after correction for water, 40° C. 2 week” value in data set [1] (phosphate buffer pH 7.0, 40° C., 2 weeks (Table 6)) is on record as 64.3%. Besides, the “survival rate after correction for water, 40° C. 8 week” value in data set [1] (phosphate buffer pH 7.0, 40° C., 8 weeks (Table 6)) was 23.7%; in data set [3], 15.6%. For the same molecule, the “survival rate after correction for water, 60° C. 1 week preservation” value in data set [2] (1 week) turned out to be 26.6%. The “survival rate after correction for water, 60° C. 2 weeks preservation” value in data set [2] (2 weeks) amounted to 15.8%. The “survival rate after correction for water, 60° C. 1 week” value in data set [3] amounted to 26.4%. For the same molecule, the “survival rate after correction for water, 60° C. 2 week” value in data set [3] is 14.6%. The “survival rate after correction for water, 80° C. 8 week” value (“survival rate … 80° C. 8 week” for short) in data set [4] was 21.3%.

Take `CC[C@H](C)[C@H](NC(=O)CNC(=O)[C@H](Cc1nnn[nH]1)NC(=O)[C@H](CO)NC(=O)[C@H](Cc1c[nH]cn1)NC(C)=O)C(=O)N[C@@H](Cc1ccccc1)C(=O)N[C@@H](C)C(=O)N[C@@H](Cc1nnn[nH]1)C(=O)N[C@@H](C)C(=O)N[C@@H](Cc1ccc(O)cc1)C(=O)N[C@@H](CO)C(=O)N[C@@H](CCCNC(=N)N)C(=O)N[C@@H](Cc1ccc(O)cc1)C(=O)N[C@@H](CCCNC(=N)N)C(=O)N[C@@H](CCCCN)C(=O)N[C@@H](CCC(N)=O)C(=O)N[C@@H](CC(C)C)C(=O)N[C@@H](C)C(=O)N[C@H](C(=O)N[C@@H](CCCCN)C(=O)N[C@@H](CCCCN)C(=O)N[C@@H](Cc1ccc(O)cc1)C(=O)N[C@@H](CC(C)C)C(=O)N[C@@H](C)C(=O)N[C@@H](C)C(=O)N[C@H](C(=O)N[C@@H](CC(C)C)C(N)=O)C(C)C)C(C)C` [Peptide 27, HSTzGI FATzAY SRYRK QLAVK KYLAA VL] (Ac-HS[Ala(1H-tetrazol-5-yl)]GIFA[Ala(1H-tetrazol-5-yl)]AYSRYRKQLAVKKYLAAVL-NH2): the midpoint of the response on VPAC1 receptor, the EC50, lay at 0.111 nM. Besides, in data set [3], the “survival rate … 40° C. 4 week” value was found to be 90.9%; the “survival rate after correction for water, 40° C. 8 week” value stood at 84.3%; the “survival rate after correction for water, 60° C. 1 week” value stood at 97.3%; the “survival rate after correction for water, 60° C. 2 week” value is given as 95.5%.

Consider `CC[C@H](C)[C@H](NC(=O)CNC(=O)C(Cc1nnn[nH]1)NC(=O)[C@H](CO)NC(=O)[C@@H](N)Cc1c[nH]cn1)C(=O)N[C@@H](Cc1ccccc1)C(=O)N[C@H](C(=O)NC(Cc1nnn[nH]1)C(=O)N[C@@H](CO)C(=O)N[C@@H](Cc1ccc(O)cc1)C(=O)N[C@@H](CO)C(=O)N[C@@H](CCCNC(=N)N)C(=O)N[C@@H](Cc1ccc(O)cc1)C(=O)N[C@@H](CCCNC(=N)N)C(=O)N[C@@H](CCCCN)C(=O)N[C@@H](CCC(N)=O)C(=O)N[C@@H](CCSC)C(=O)N[C@@H](C)C(=O)N[C@H](C(=O)N[C@@H](CCCCN)C(=O)N[C@@H](CCCCN)C(=O)N[C@@H](Cc1ccc(O)cc1)C(=O)N[C@@H](CC(C)C)C(=O)N[C@@H](C)C(=O)N[C@@H](C)C(=O)N[C@H](C(N)=O)C(C)C)C(C)C)[C@@H](C)O` (some centres unmarked) [Peptide 9, HSTzGI FTTzSY SRYRK QMAVK KYLAA V] (H-HS[ξAla(tetrazol-5-yl)]GIFT[ξAla(tetrazol-5-yl)]SYSRYRKQMAVKKYLAAV-NH2), for which the “survival rate … 40° C. 4 week” value in data set [1] (setting [6]) is recorded as 92.4%. Further, the “survival rate … 80° C. 8 week” value in data set [4] turned out to be 83.3%.

Take `CC[C@H](C)[C@H](NC(=O)CNC(=O)C(Cc1nnn[nH]1)NC(=O)[C@H](CO)NC(=O)[C@@H](N)Cc1c[nH]cn1)C(=O)N[C@@H](Cc1ccccc1)C(=O)N[C@H](C(=O)NC(Cc1nnn[nH]1)C(=O)N[C@@H](CO)C(=O)N[C@@H](Cc1ccc(O)cc1)C(=O)N[C@@H](CO)C(=O)N[C@@H](CCCNC(=N)N)C(=O)N[C@@H](Cc1ccc(O)cc1)C(=O)N[C@@H](CCCNC(=N)N)C(=O)N[C@@H](CCCCN)C(=O)N[C@@H](CCC(N)=O)C(=O)N[C@@H](CCSC)C(=O)N[C@@H](C)C(=O)N[C@H](C(=O)N[C@@H](CCCCN)C(=O)N[C@@H](CCCCN)C(=O)N[C@@H](Cc1ccc(O)cc1)C(=O)N[C@@H](CC(C)C)C(=O)N[C@@H](C)C(N)=O)C(C)C)[C@@H](C)O` (some centres unmarked) [Peptide 8, HSTzGI FTTzSY SRYRK QMAVK KYLA] (H-HS[ξAla(tetrazol-5-yl)]GIFT[ξAla(tetrazol-5-yl)]SYSRYRKQMAVKKYLA-NH2): the “survival rate … 40° C. 4 week” value in data set [1] (setting [6]) is 95.1%. Besides, the “survival rate … 80° C. 8 week” value in data set [4] turned out to be 84.1%.
